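Dose response: 5 concentrations. Exposure: 48 h. Format: 96-well plates. Endpoint: linear interpolation; highest concentration if not reached. At the GI50, growth is halved. At the TGI there is no net growth.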
Columns and labels:
Test in all cases: NCI anticancer screen, dose series, 48 h
[1] = system: RPMI-8226 leukemia
[2] = system: EKVX NSCLC
[3] = system: NCI-H522 lung
[4] = system: SW-620 colon
[5] = system: SN12C renal
[6] = system: BT-549 breast
[7] = system: SNB-19 CNS
[8] = system: ACHN renal
[9] = system: A549 NSCLC
[10] = system: NCI-H23 lung

With `COc1c(C(N)=O)cc(-c2ccc(Cl)cc2)cc1-c1ccc(S(N)(=O)=O)cc1` the GI50 [1] was 9.13 µM, the TGI [1] was greater than 25 µM and the GI50 [2] was 8.91 µM. For the same compound, the TGI [2] was greater than 25 µM, the GI50 [3] was 8.11 µM and the TGI [3] was greater than 20.8 µM. For the same compound, the GI50 [4] was 12 µM, the TGI [4] was greater than 25 µM and the GI50 [5] was 10.5 µM. It also gave a TGI [5] greater than 25 µM, a GI50 [6] of 10.5 µM and a TGI [6] greater than 25 µM. The GI50 [7] was 14 µM, the TGI [7] was greater than 25 µM and the GI50 [8] was 10.1 µM. For the same compound, the TGI [8] was greater than 25 µM, the GI50 [9] was 8.33 µM and the TGI [9] was greater than 25 µM. It also gave a GI50 [10] greater than 18.3 µM and a TGI [10] greater than 25 µM.

`CC(C)[C@@H](C(=O)O[C@@H]1/C=C/C(=O)O[C@@H](C)CCC/C=C/[C@@H]2C[C@H](O)C[C@H]21)N(C)C` was tested, and the GI50 [1] was 3.93 µM, the TGI [1] was 27.1 µM and the GI50 [2] was 12.5 µM. The TGI [2] was 64.9 µM, the GI50 [3] was 26.6 µM and the TGI [3] was greater than 75 µM. For the same compound, the GI50 [4] was 7.03 µM, the TGI [4] was 20.7 µM and the GI50 [5] was 28.4 µM. It also gave a TGI [5] greater than 62.1 µM, a GI50 [6] of 9.41 µM and a TGI [6] of 32 µM. It also gave a GI50 [7] of 37 µM, a TGI [7] greater than 100 µM and a GI50 [8] of 38.4 µM. The TGI [8] was greater than 100 µM, the GI50 [9] was 24 µM and the TGI [9] was greater than 100 µM. It also gave a GI50 [10] of 23.3 µM and a TGI [10] of 91.8 µM.

Compound `COC(=O)Nc1nc2ccc(C(=O)c3cccc(I)c3)cc2[nH]1` has a GI50 [1] of 0.0365 µM, a TGI [1] of 1.27 µM and a GI50 [2] of 0.176 µM. The TGI [2] was greater than 87.9 µM, the GI50 [3] was 0.0778 µM and the TGI [3] was 9.59 µM. For the same compound, the GI50 [4] was 0.0394 µM, the TGI [4] was 14.9 µM and the GI50 [5] was 0.125 µM. For the same compound, the TGI [5] was greater than 33.3 µM, the GI50 [6] was 0.16 µM and the TGI [6] was 6.57 µM. It also gave a GI50 [7] of 0.0625 µM, a TGI [7] greater than 39.8 µM and a GI50 [8] of 0.13 µM. For the same compound, the TGI [8] was 21.1 µM, the GI50 [9] was 0.0699 µM and the TGI [9] was 15 µM. It also gave a GI50 [10] of 0.183 µM and a TGI [10] of 21.1 µM.

In the case of `COc1ccc(C(=O)/C=C/c2ccc(OCc3cccc(C(F)(F)F)c3)c(OC)c2)cc1OC`, the GI50 [1] is reported as 25.3 µM, the TGI [1] is reported as 94 µM and the GI50 [2] is reported as 45.8 µM. The TGI [2] was greater than 1000 µM, the GI50 [3] was 39.2 µM and the TGI [3] was greater than 1000 µM. The GI50 [4] was 49.7 µM, the TGI [4] was greater than 1000 µM and the GI50 [5] was 74.4 µM. The TGI [5] was greater than 1000 µM, the GI50 [6] was 38.1 µM and the TGI [6] was 476 µM. For the same compound, the GI50 [7] was 78.9 µM, the TGI [7] was greater than 1000 µM and the GI50 [8] was 52.8 µM. For the same compound, the TGI [8] was greater than 1000 µM, the GI50 [9] was 67.7 µM and the TGI [9] was greater than 1000 µM. It also gave a GI50 [10] of 46.7 µM and a TGI [10] greater than 1000 µM.

In the case of `Cc1ccc2ccccc2c1CSc1nc(N)nc2c1ncn2CC(C)C`, the TGI [1] is reported as greater than 73.3 µM, the TGI [2] is reported as greater than 100 µM and the TGI [3] is reported as 96.9 µM. It also gave a TGI [4] greater than 100 µM, a TGI [5] greater than 100 µM and a TGI [6] greater than 100 µM. The TGI [7] was greater than 100 µM, the TGI [8] was greater than 100 µM and the TGI [9] was greater than 100 µM. For the same compound, the TGI [10] was greater than 100 µM.

`CCCCCCCCN(CCCCCCCC)CC(O)c1cc(-c2ccccc2)nc2ccc(OC)cc12` (stereo not given) gave a GI50 [1] of 10.3 µM, a TGI [1] of 44.3 µM and a GI50 [2] greater than 100 µM. It also gave a TGI [2] greater than 100 µM, a GI50 [3] of 53.4 µM and a TGI [3] greater than 100 µM. The GI50 [4] was 16.5 µM, the TGI [4] was greater than 100 µM and the GI50 [5] was 29.7 µM. For the same compound, the TGI [5] was greater than 100 µM, the GI50 [6] was 23.9 µM and the TGI [6] was 64 µM. For the same compound, the GI50 [7] was 54.7 µM, the TGI [7] was greater than 100 µM and the GI50 [8] was greater than 100 µM. The TGI [8] was greater than 100 µM, the GI50 [9] was greater than 100 µM and the TGI [9] was greater than 100 µM. The GI50 [10] was 43.4 µM and the TGI [10] was greater than 100 µM.

Work on `Cc1nnc(N/N=C/c2ccc([N+](=O)[O-])o2)[nH]c1=O` yielded a GI50 [1] of 2.95 µM, a TGI [1] greater than 32 µM and a GI50 [2] of 1.05 µM. For the same compound, the TGI [2] was greater than 100 µM, the GI50 [3] was 0.914 µM and the TGI [3] was 5.58 µM. The GI50 [4] was 1.24 µM, the TGI [4] was greater than 100 µM and the GI50 [5] was 0.589 µM. The TGI [5] was 22.5 µM, the GI50 [6] was 0.566 µM and the TGI [6] was greater than 21.5 µM. The GI50 [7] was 0.779 µM, the TGI [7] was greater than 100 µM and the GI50 [8] was 0.603 µM. For the same compound, the TGI [8] was 4.58 µM, the GI50 [9] was 2.57 µM and the TGI [9] was greater than 49.5 µM. For the same compound, the GI50 [10] was 1.37 µM and the TGI [10] was greater than 100 µM.

With `COc1nn(C)cc1Nc1nccc(-c2c[nH]c3c(NC(=O)[C@@H](C)N4CCN(C)CC4)cccc23)n1` the GI50 [1] was 49.5 µM, the TGI [1] was greater than 100 µM and the GI50 [2] was 47 µM. It also gave a TGI [2] greater than 100 µM, a GI50 [3] of 43.2 µM and a TGI [3] greater than 100 µM. The GI50 [4] was 40.8 µM, the TGI [4] was greater than 100 µM and the GI50 [5] was 38.3 µM. The TGI [5] was greater than 100 µM, the GI50 [6] was 22.5 µM and the TGI [6] was 72.9 µM. It also gave a GI50 [7] of 75.6 µM, a TGI [7] greater than 100 µM and a GI50 [8] of 37.6 µM. It also gave a TGI [8] greater than 100 µM, a GI50 [9] of 44.3 µM and a TGI [9] greater than 100 µM. It also gave a GI50 [10] of 40.5 µM and a TGI [10] greater than 100 µM.

Work on `O=C(Nc1cccc([N+](=O)[O-])c1)c1cccc(C(=O)Nc2cccc([N+](=O)[O-])c2)c1` yielded a GI50 [1] greater than 100 µM, a TGI [1] greater than 100 µM and a GI50 [2] greater than 59.9 µM. It also gave a TGI [2] greater than 100 µM, a GI50 [3] of 3.32 µM and a TGI [3] greater than 100 µM. It also gave a GI50 [4] greater than 100 µM, a TGI [4] greater than 100 µM and a GI50 [5] of 60.3 µM. The TGI [5] was greater than 100 µM, the GI50 [6] was 9.05 µM and the TGI [6] was greater than 100 µM. The GI50 [7] was 28.6 µM, the TGI [7] was greater than 100 µM and the GI50 [8] was greater than 100 µM. For the same compound, the TGI [8] was greater than 100 µM, the GI50 [9] was greater than 100 µM and the TGI [9] was greater than 100 µM. For the same compound, the GI50 [10] was greater than 72.4 µM and the TGI [10] was greater than 100 µM.

Work on `CCC(=O)OCOc1ccc(/C=C2\CCC(CN(C)C)C2=O)cc1` (stereo not given) yielded a TGI [1] greater than 23.3 µM, a TGI [2] of 37.9 µM and a TGI [3] of 4.41 µM. For the same compound, the TGI [4] was 7.38 µM, the TGI [5] was 7.56 µM and the TGI [6] was 13.6 µM. It also gave a TGI [7] of 32.5 µM, a TGI [8] of 20.4 µM and a TGI [9] of 40.3 µM. It also gave a TGI [10] of 15.8 µM.

`COC(=O)CC[C@@H](C)[C@H]1CC[C@H]2[C@@H]3CC[C@@H]4C[C@H](O)CC[C@]4(C)[C@H]3CC[C@]12C` was tested, and the TGI [1] was greater than 100 µM, the TGI [2] was 35.6 µM and the TGI [3] was 46.8 µM. The TGI [4] was greater than 100 µM, the TGI [5] was 33.2 µM and the TGI [6] was 33.8 µM. For the same compound, the TGI [7] was 44.9 µM, the TGI [8] was 39.8 µM and the TGI [9] was 36.6 µM. The TGI [10] was 32.9 µM.

With `Cc1cc(N(CCC#N)S(=O)(=O)c2ccccc2)ccc1C=Nc1ccc(C(=O)O)cc1` the TGI [1] was greater than 21.2 µM, the TGI [2] was 35.8 µM and the TGI [3] was 9.13 µM. For the same compound, the TGI [4] was 15 µM, the TGI [5] was 16.8 µM and the TGI [6] was greater than 100 µM. For the same compound, the TGI [7] was 44.8 µM, the TGI [8] was greater than 33.2 µM and the TGI [9] was 52.5 µM. For the same compound, the TGI [10] was 33.9 µM.

With `CC1=CC(C)=N/C(=N/S(=O)(=O)c2cc(C)c(Cl)cc2SCc2ccccc2)NN1` the GI50 [1] was greater than 100 µM, the TGI [1] was greater than 100 µM and the GI50 [2] was 98.6 µM. The TGI [2] was greater than 100 µM, the GI50 [3] was 96.6 µM and the TGI [3] was greater than 100 µM. The GI50 [4] was greater than 100 µM, the TGI [4] was greater than 100 µM and the GI50 [5] was greater than 100 µM. It also gave a TGI [5] greater than 100 µM, a GI50 [6] greater than 100 µM and a TGI [6] greater than 100 µM. The GI50 [7] was greater than 100 µM, the TGI [7] was greater than 100 µM and the GI50 [8] was greater than 100 µM. For the same compound, the TGI [8] was greater than 100 µM, the GI50 [9] was greater than 100 µM and the TGI [9] was greater than 100 µM. For the same compound, the GI50 [10] was greater than 100 µM and the TGI [10] was greater than 100 µM.

For `COc1cc2c(cc1OC)C(Cl)C(c1ccc(Br)cc1)=C2Cl` (stereo not given), the TGI [1] was 15.2 µM, the TGI [2] was 17.2 µM and the TGI [3] was 12.8 µM. The TGI [4] was 23.4 µM, the TGI [5] was 25.4 µM and the TGI [6] was 5.44 µM. For the same compound, the TGI [7] was 32 µM, the TGI [8] was 21.3 µM and the TGI [9] was 33 µM. The TGI [10] was 23.8 µM.

With `CC1=C(CCC(C)CO)O[C@H]2C[C@H]3[C@@H]4CC[C@H]5C[C@@H](O)CC[C@]5(C)[C@H]4CC(=O)[C@]3(C)[C@@H]12` (stereo not given in full) the TGI [1] was 13.8 µM, the TGI [2] was greater than 90.2 µM and the TGI [3] was 30.3 µM. The TGI [4] was greater than 100 µM, the TGI [5] was 53.2 µM and the TGI [6] was 58.4 µM. It also gave a TGI [7] of 55.5 µM, a TGI [8] greater than 69.7 µM and a TGI [9] of 55.7 µM. The TGI [10] was 36.6 µM.
